Consider three substances from US6756362B2, “Methods and compositions based on inhibition of cell invasion and fibrosis by anionic polymers” (priority 1991, dated 2004).

For one data set, the system named is PC12 cells. Description: PC12 neurite outgrowth assay. Type of data set: cell-based. The settings on record: NGF-primed PC12 cells; scored 2 days later. On the procedure:
Cell lines. Murine 3T3 fibroblast (NIH), rat C6 glioma (Paganetti et al., 1988, J. Cell Biol. 107:2281) and MCG-28 young immortalized mouse astrocyte (a murine neonatal astrocyte line immortalized with SV-40) were grown in medium composed of Dulbecco's modified Eagle medium (DMEM), 10% fetal calf serum (Gibco Laboratories), and penicillin G/streptomycin (100 units/ml, 100 μg/ml respectively, Gibco Laboratories). For the stripe assay, confluent plates were disaggregated with 0.05% trypsin, 0.53 mM EDTA (Gibco Laboratories) and seeded at 200,000 cells/ml (3 ml/plate). For the cell adhesion assays, confluent cultures were disaggregated with 0.03% EDTA and plated in a 96-well microtiter plate at 20,000-100,000 cells per well. PC12 cells, a pheochromocytoma cell line (Green L. A. & Tischler A. S., 1976, Proc. Natl. Acad. Sci. U.S.A. 73:2424), were grown in medium containing Roswell Park Memorial Institute (RPMI) medium 1640 (Gibco Laboratories), 10% horse serum, 5% fetal calf serum (FCS), and penicillin G/streptomycin (100 units/ml, 100 μg/ml respectively, Gibco Laboratories). The cells were disaggregated with 0.03% EDTA and plated in a 96-well microtiter plate at 3,000 cells per well.
PC12 cells were primed with 20 ng/ml NGF for 8 days, collected with 0.03% EDTA in PBS and plated in precoated 96-well microtiter plates at 3,000 cells/well. The microtiter plates were precoated with poly-L-lysine and blocked with adhesion medium (1% BSA in RPMI) for 20 min prior to addition of cells. The cells were grown in adhesion medium supplemented with 20 ng/ml NGF. The cells were allowed to attach for 2 hr prior to the addition of the test compounds (Akeson and Warren, 1986, Exp. Cell Res. 162:347-362).
PC-12 cells primed with NGF were plated in 96-well plates. Test solutions were added to the wells and the cells were scored 2 days later as (+) if neurites of at least two cell bodies diameter in length were present on the majority of the cells, and (−) if no or only short processes were present. […] The compounds tested included GAGs (heparin, dermatan sulfate, chondroitin sulfate A, keratan sulfate and hyaluronic acid), sulfated carbohydrate polymers (dextran sulfate and pentosan polysulfate), and another polyanionic polymer (e.g., alginic acid).

The next data set is described as follows: Sulfur content. The class given is physicochemical. The settings on record: by weight.
Data set [1] relates to DRG explants, neuronal and non-neuronal cell migration. Description: Explant outgrowth assay. The class given is cell-based, chick. The procedure:
Primary Explant Cultures. Dorsal root ganglia (DRGs) were obtained from E8-E9 chick embryos. The dissection was carried out in CMF-HBSS. The spinal cord was exposed and DRGs were removed and cleaned from surrounding connective tissue. DRGs were plated in DMEM/F12, 10% fetal calf serum containing 50 ng/ml nerve growth factor (NGF). The DRGs were seeded on laminin (LN, Gibco Laboratories) or poly-L-lysine (PLL, Sigma) coated dishes.
The relative outgrowth, compared to outgrowth of untreated controls, was rated as follows: 1: 0-19% of control; 2: 20-39% of control; 3: 40-59% of control; 4: 60-79% of control; 5: 80-100% of control.
The effect of heparin and dextran sulfate on cell migration from explant cultures of chick DRGs was tested. DRGs were plated in culture dishes precoated with a substratum of either PLL or LN and grown in culture medium containing different concentrations of heparin, dextran sulfate or dextran solutions. In the absence of a test compound, within 24-48 hours a halo of neuritic outgrowth and migrating non-neuronal cells, i.e., fibroblasts and Schwann cells, was evident around the ganglia (FIG. 6A). The size of the cellular halo migrating from the DRG explant was reduced when the explant was grown in the presence of 0.4 mg/ml heparin (FIG. 6B). […] In contrast, 0.4 mg/ml dextran had no effect (FIG. 6D). The size of the cellular halo emanating from DRGs grown in the presence of test compounds was evaluated relative to untreated control and rated as described in Section 8.1.3, supra (Table 9).

The test system of data set [2] is epidural fibrosis at laminectomy site, Lewis inbred rats. As to the kind of experiment: Epidural fibrosis after lumbar laminectomy in rats, gross evaluation. Type of data set: in vivo, rat. On the set-up: TOTAL SCORE / TOTAL SCORE 2 WEEKS: scale not given here. The settings on record: for TOTAL SCORE 2 WEEKS: Table 4, 2 weeks post-implantation; for Bone Growth / Deep Scar / Gelfoam Appearance: score 0-3 per Table 1; for Bone Growth / Deep Scar / Gelfoam Appearance / Superficial Scar: agent-soaked GELFOAM in laminectomy site; for Superficial Scar: score 1-3 per Table 1; for inhibition of scar formation (in words): versus buffer control. The procedure:
Epidural fibrosis was investigated after lumbar laminectomy in rats. In this model, a laminectomy was performed at the lumbar 3 and 5 vertebrae and then the test agent was applied to the laminectomy site. Subsequently, the laminectomy sites were examined for fibrosis by gross dissection or by histological analysis.
Laminectomies (described below) were performed at lumbar vertebrae L3 and L5 to provide auto-controls within each animal. Segments of GELFOAM® (Upjohn) soaked with experimental or control solutions were inserted into the laminectomy site. The soared GELFOAM® fragments were prepared and coded 24 hours beforehand. The GELFOAM® segments were soaked in solutions of dextran sulfate in calcium/magnesium-free phosphate buffered saline (CMF-PBS), dextran in CMF-PBS, or CMF-PBS alone. In some laminectomy sites, the GELFOAM® fragments were omitted, in order to serve as sham operations. Subsequently, the evaluation by gross dissection was done without knowledge of which solutions had been placed in which laminectomy site. Thus, the experiments were double-blind.
Lewis inbred rats were anesthetized with 4% chloral hydrate (34 mg/100 g body weight). The dorsal skin was incised and the paraspinal muscles were separated from the spinous processes of lumbar vertebrae L2 through L6. The spinous processes of L3 and L5 were removed with a rongeurs; then the vertebral lamina was removed with a micro-rongeurs creating a rectangular laminectomy defect 4×2 mm in size. After bleeding was stopped, a GELFOAM® segment was placed into the laminectomy site according to a randomized protocol. The overlying paraspinal muscles were closed over the site by suturing the superficial fascia together with resorbable 6-0 PDS II (Ethicon). The skin incision was closed with wound clips.
The animals were kept for two weeks prior to gross evaluation. At that time, the rats were anesthetized with 4% chloral hydrate and the wound was reopened by incising, the skin and separating the paraspinal muscles. The quality and quantity of scar tissue above the laminectomy site, the appearance of the GELFOAM® and the extent of new bone growth was evaluated by visual and tactile observation during sharp dissection. After the gross evaluation was complete, the rats were euthanized by anesthesia overdose.
All gross evaluations were made prior to breaking the treatment code, but the observations have been tabulated and presented below according to treatment group.

[3] abbreviates: 2 μg/ml in culture medium, LN substratum.
[4] abbreviates: 10 μg/ml in culture medium, LN substratum.
The mark [5] stands for this setting: 50 μg/ml in culture medium, LN substratum.
The mark [6] stands for this setting: 50 μg/ml in culture medium, PLL substratum.
Where [7] appears, read: 200 μg/ml in culture medium, LN substratum.
[8] abbreviates: 200 μg/ml in culture medium, PLL substratum.
[9] abbreviates: 400 μg/ml in culture medium, LN substratum.
The mark [10] stands for this setting: 400 μg/ml in culture medium, PLL substratum.
Where [11] appears, read: Table 2, sum of four criteria, lower = greater inhibition of scar formation, two weeks.
Where [12] appears, read: 0.5 μg/ml in culture medium, PLL substratum.
[13] abbreviates: 1 μg/ml in culture medium, PLL substratum.
Setting [14] is: 1.25 μg/ml in culture medium, LN substratum.
Where [15] appears, read: 1.25 μg/ml in culture medium, PLL substratum.
Where [16] appears, read: 2 μg/ml in culture medium, PLL substratum.
The mark [17] stands for this setting: 10 μg/ml in culture medium, PLL substratum.

dextran [reference compound]: in the data set on PC12 cells, the “IC100, minimum concentration causing 100% inhibition of neurite outgrowth” value is above 0.001 g/mL. Besides, the “Sulfur Content” value in “Sulfur content” is recorded as 0%. Moreover, the “Cellular Migration from DRG Explants, rating relative to untreated control” value in data set [1] (setting [3]), in data set [1] (setting [4]), in data set [1] (setting [5]), in data set [1] (setting [6]), in data set [1] (setting [7]) and in data set [1] (setting [8]) was 5 (5 = 80-100% of control) each time. Besides, the “Cellular Migration from DRG Explants, rating relative to untreated control” value in data set [1] (setting [9]) and in data set [1] (setting [10]) was 5 (5 = 80-100% of control) in each case. The “TOTAL SCORE” value in data set [2] (setting [11]) was determined as 8.8 ± 2.4; in data set [2] (Table 5, agent 20 mg/ml), 8.8 ± 2.4. The “TOTAL SCORE 2 WEEKS” value in data set [2] (20 mg/ml) is given as 9.5 ± 2.4. Besides, in data set [2] (two weeks), the “Bone Growth” value is recorded as 1.6 ± 0.9. Moreover, the “Deep Scar” value in data set [2] (two weeks) was 2.3 ± 0.9. Besides, the “Gelfoam Appearance” value in data set [2] (two weeks) is given as 2.2 ± 0.8. In addition, the “Superficial Scar” value in data set [2] (two weeks) is on record as 2.7 ± 0.5.

With Heparin, the “IC100, minimum concentration causing 100% inhibition of neurite outgrowth” value in the data set on PC12 cells is 2.6e-07 g/mL. In addition, in “Sulfur content”, the “Sulfur Content” value worked out at 11.8%. Besides, the “Cellular Migration from DRG Explants, rating relative to untreated control” value in data set [1] (setting [12]) is given as 5 (5 = 80-100% of control); in data set [1] (setting [13]) it was 4 (4 = 60-79%); in data set [1] (setting [14]), 5 (5 = 80-100% of control); in data set [1] (setting [15]), 2 (2 = 20-39%); in data set [1] (setting [16]), 2 (2 = 20-39%); in data set [1] (setting [4]) it was 5 (5 = 80-100% of control). In addition, the “Cellular Migration from DRG Explants, rating relative to untreated control” value in data set [1] (setting [17]) is on record as 2 (2 = 20-39%); in data set [1] (setting [5]), 5 (5 = 80-100% of control); in data set [1] (setting [6]) it was 2 (2 = 20-39%); in data set [1] (setting [7]) it was 5 (5 = 80-100% of control); in data set [1] (setting [8]), 2 (2 = 20-39%); in data set [1] (setting [9]), 5 (5 = 80-100% of control). Besides, the “Cellular Migration from DRG Explants, rating relative to untreated control” value in data set [1] (setting [10]) is given as 1 (1 = 0-19%). Further, the “inhibition of scar formation (in words)” value in data set [2] (20 mg/ml) is “marginal improvement”. Moreover, the “TOTAL SCORE” value in data set [2] (Table 5, agent 20 mg/ml) is 7.3 ± 2.5. The “hemorrhage and hematoma formation at the laminectomy site” value in data set [2] (rat, in vivo) is “caused hemorrhage and hematoma formation”.

For the substance dextran sulfate, the “IC100, minimum concentration causing 100% inhibition of neurite outgrowth” value in the data set on PC12 cells was 5.2e-07 g/mL. Further, the “Sulfur Content” value in the data set “Sulfur content” is listed as 15.3%. For the same substance, the “Cellular Migration from DRG Explants, rating relative to untreated control” value in data set [1] (setting [12]) is listed as 5 (5 = 80-100% of control); in data set [1] (setting [13]), 3 (3 = 40-59%); in data set [1] (setting [14]), 5 (5 = 80-100% of control); in data set [1] (setting [15]), 2 (2 = 20-39%); in data set [1] (setting [3]), 3 (3 = 40-59%); in data set [1] (setting [16]), 1 (1 = 0-19%). In addition, the “Cellular Migration from DRG Explants, rating relative to untreated control” value in data set [1] (setting [4]), in data set [1] (setting [17]), in data set [1] (setting [5]), in data set [1] (setting [6]), in data set [1] (setting [7]) and in data set [1] (setting [8]) was 1 (1 = 0-19%) each time. In addition, the “Cellular Migration from DRG Explants, rating relative to untreated control” value in data set [1] (setting [9]) and in data set [1] (setting [10]) was 1 (1 = 0-19%) each time. Further, in data set [2] (20 mg/ml), the “inhibition of scar formation (in words)” value is recorded as “potent inhibition”. For the same substance, the “TOTAL SCORE” value in data set [2] (setting [11]) is reported as 1.7 ± 0.9; in data set [2] (Table 3 dose response, 0.2 mg/ml), 7.8 ± 1.9; in data set [2] (Table 3 dose response, 2 mg/ml), 3.0 ± 2.3; in data set [2] (Table 3 dose response, 20 mg/ml), 1.3 ± 0.5; in data set [2] (Table 5, agent 20 mg/ml), 1.7 ± 0.9. The “TOTAL SCORE 2 WEEKS” value in data set [2] (20 mg/ml) worked out at 1.2 ± 0.5. Moreover, the “hemorrhage and hematoma formation at the laminectomy site” value in data set [2] (rats, applied at laminectomy site) is “not seen”. In addition, in data set [2] (two weeks), the “Bone Growth” value was determined as 0.1 ± 0.3. Moreover, the “Deep Scar” value in data set [2] (two weeks) turned out to be 0.3 ± 0.5. Besides, the “Gelfoam Appearance” value in data set [2] (two weeks) is recorded as 0.1 ± 0.3. For the same substance, in data set [2] (two weeks), the “Superficial Scar” value stood at 1.2 ± 0.4.
